Test results as given in patent US5736568A, “2-(aminoalkoxy) phenylalkylamines with antiinflammatory activity” (Knoll Aktiengesellschaft, priority 1994, dated 1998).

Columns and labels:
[1] = tested on: arachidonic acid release from zymosan stimulated macrophages; experiment: Test A: Inhibition of Arachidonic Acid Release from Zymosan Stimulated Macrophages; assay type: cell-based, mice (female MF1); details: Mus musculus, Macrophage; peritoneal macrophages labelled with [3H]-arachidonic acid, zymosan stimulus, 5 h; tested at 100, 50, 20, 10, 5 and 1 μM
Method: Test A was carried out in the following way:
Inhibition of Arachidonic Acid Release from Zymosan Stimulated Macrophages
Female MF1 mice (weighing 20 to 25 g) were killed using a rising concentration of CO2. The mice were laid on their backs and the abdomens wiped with 70% alcohol. The skin was pulled back, exposing the peritoneal wall. Medium A (5 ml) (see below) was injected into the peritoneal cavity of each mouse followed by approximately 1 ml of air using a 20 ml syringe and a 21 G×40 mm needle in order to form a suspension of macrophage cells. The medium and cells were then removed using a 19 G×40 mm needle. The resulting suspension was returned to a sterile beaker kept on ice. The extracts from all the mice were pooled and this pooled cell suspension was counted using a Coulter counter and adjusted to a final cell count of 1-1.3×10^6 cells/ml prior to labelling with [^3 H]-arachidonic acid. Typically five mice provided sufficient cells for each multiwell plate.
Sufficient [^3 H]-arachidonic acid in ethanol to give a final concentration of 1.6 μCi/ml (equivalent to 40 μCi/plate) was blown to dryness under nitrogen. The arachidonic acid was then resuspended in 1 or 2 ml of the cell suspension which was then mixed with the remainder of the cell suspension in a centrifuge bottle.
The following day, non-adherent cells were removed by washing 3 times with sterile phosphate buffered saline (PBS). The adherent peritoneal macrophages were then cultured for a further 24 hours in the presence or absence of drugs, in medium B (see below) at 37° in a 5% CO2 atmosphere in order to measure the effects of drugs on the spontaneous release of arachidonic acid in the absence of stimulus. After this incubation, supernatants were removed to give medium 1 and stored in sealed multi-well plates at 4° C. prior to scintillation counting. […] The supernatants were replaced by fresh medium C containing fresh drug and a stimulus. Three drugs were tested at six concentrations (100, 50, 20, 10, 5 and 1 μM) in replicates of four on each plate. The other wells contained controls consisting of a positive control (e.g. dexamethasone), medium (B) only and medium C only.
Incubation was then continued for a further 5 hours, whereupon the supernatants were collected to give medium 2 and the adherent cells washed with PBS. The cells were then lysed with 100 μl of 0.1% TRITON® X100 in a 0.1% solution of bovine serum albumin in 0.9% saline and mechanically disrupted to give cell lysates. These supernatants (medium 2) and cell lysates (Cells) were also stored in sealed multi-well plates at 4° C. prior to scintillation counting. 200 μl aliquots of media, or 100 μl aliquots of cells were counted using 2 ml of OPTIPHASE "HIGH SAFE" (Trademark of LKB) as scintillant.
The percentage of arachidonic acid released was calculated using the mean values for each group of 4 wells in the following equation. [formula]
The percentage inhibition of arachidonic acid release caused by a drug may then be calculated using the following equation. [formula]
Medium A (for peritoneal lavage)
This mixture was transferred to sterile flask and made up to 400 ml with sterile water.
Medium B (for cell culture)
This mixture was transferred to a sterile beaker and made up to 650 ml with sterile water.
Medium C=medium B+stimulant (zymosan)
The zymosan stimulant was prepared as follows:--zymosan (200 mg) (supplied by Sigma) was added to PBS (20 ml). The mixture was boiled for 30 minutes and the volume restored to 20 ml with water. The zymosan was harvested by centrifugation at 500×g for 5 minutes, washed twice by resuspension in PBS (10 ml) and centrifugation. After the final separation, the zymosan was resuspended in 20 ml PBS and stored as 1 ml aliquots at -20° C.

[2] = tested on: carrageenan-induced paw oedema; experiment: Test B: Carrageenan-induced rat paw oedema test; assay type: in vivo; details: inhibition of paw oedema, 100 mg/kg oral, 3 h after carrageenan
Method: Test B was carried out in the following way:
Carrageenan-induced rat paw oedema test
Female rats, weight range 125-150 g were fasted overnight. One of the hind legs of each animal was marked with a line at the connection between the cuboid/navicular and calcaneus/talus bones. Groups of six rats were orally dosed at 10 ml/kg, in random order, with a given dose of the test compound given as a solution or suspension in 10% (w/v) aqueous acacia solution.
One hour after dosing, 0.1 ml of 1% (w/v) sterile carrageenan λ in normal saline was injected deeply into the plantar surface of the marked hind foot of each rat. The volume of the foot (up to the marked line) was measured immediately after injection using duplicate water displacement readings. Three hours after injection the foot volume was measured again and the percentage increase in foot volume relative to the initial reading was calculated.
The increase in foot volume (i.e. the degree of oedema) in drug treated animals when compared with that in the drug untreated control gave the degree of inhibition of paw oedema by the drug.
Compounds were considered to be active in this test if they produced a statistically significant (typically 20% or greater) inhibition of paw oedema in at least two out of three tests after oral dosing at 100 mg/kg. Statistical significance was assessed using the Student's t test for single dose studies and Dunnett's test for multiple dose studies. More advantageous compounds were active in both Tests A and B,

[3] = tested on: carrageenan-induced pleurisy; experiment: Test C: Carrageenan-induced pleurisy in rats; assay type: in vivo, rat; details: 24 h and 48 h, leukocytes harvested at 72 h; for activity in Test C at 10 mg/kg or less: 10 mg/kg or less p.o. at challenge; for activity in Test C at 30 mg/kg: 30 mg/kg p.o. at challenge
Method: The most advantageous compounds of formula I were active in Test A and also in the following test. Carrageenan-induced pleurisy in rats was carried out as described by Ackerman et al. J. Pharmacol. Exp. Therap. 1980, 215, 588-595. Migrating leukocytes were harvested by lavage of the thoracic cavity 72 h after injection of 0.3 ml 1% λ-carrageenan in sterile isotonic saline. Test compounds were administered p.o. at the time of challenge and 24 h and 48 h thereafter.

Row | Structure (SMILES) | IC50 [1] [µM] | inhibition at 100 mg/kg [2] [%] | activity in Test C at 10 mg/kg or less [3] | activity in Test C at 30 mg/kg [3]
1 | CN(C)Cc1c(OCCN(C)Cc2ccccc2)ccc2ccccc12 [Example 8, N-Benzyl-2-[1-(dimethylaminomethyl)naphth-2-yloxy]-N-methylethylamine] | 13 | 23 |  | active
2 | CN(C)Cc1cc(Cl)ccc1OCCNCc1ccccc1 [Example 9, 2-[2-(Benzylamino)ethoxy]-5-chloro-N,N-dimethylbenzyl-amine] | 9 | 56 |  | 
3 | CN(C)Cc1cc(Cl)ccc1OCCN(C)Cc1ccc(C#N)cc1 [Example 10, 4-{N-[2-(4-Chloro-2-dimethylaminomethylphenoxy)ethyl]-N-[methyl]aminomethyl}benzonitrile] | 47 |  |  | 
4 | CN(C)Cc1ccccc1OCCN(C)Cc1ccccc1Cl [Example 14, 2-{2-[N-(2-Chlorobenzyl)-N-methylamino]ethoxy}-N,N-dimethylbenzylamine] | 45 |  | active | 
5 | CN(C)Cc1cc(Cl)ccc1OCCN1CCCCC1 [Example 16, 5-Chloro-2-(2-piperidinoethoxy)-N,N-dimethylbenzylamine] | 26 |  |  | 
6 | CCN(CC)CCOc1ccccc1CN(C)C [Example 19, 2-(2-diethylaminoethoxy)-N,N-dimethylbenzylamine] | 65 |  |  | 
7 | CN(C)CCOc1ccccc1CN(C)C [Example 23, 2-(2-dimethylaminoethoxy)-N,N-dimethylbenzylamine] | 62 |  |  | 
8 | CN(C)CCCOc1ccccc1CN(C)C [Example 24, N,N-dimethyl-2-(3-dimethylaminopropoxy) benzylamine] | 50 |  |  | 
9 | CCN(CC)CCOc1ccc(Cl)cc1CN(C)C [Example 25] | 30 | 22 |  | 
10 | CN(CCOc1ccc(Cl)cc1CN)Cc1ccccc1 [Example 28, 2-[2-(N-benzyl-N-methylamino)ethoxy]-5-chlorobenzylamine] | 18 |  |  | 
11 | CN(CCCOc1cccc(Cl)c1CN)Cc1ccccc1 [Example 29, 2-[3-(N-benzyl-N-methylamino)propoxy]-6-chlorobenzylamine] | 15 |  |  | 
12 | CN(C)Cc1cc(Cl)ccc1OCCN(C)Cc1ccc(C(N)=O)cc1 [Example 30, 4-{N-[2-(4-chloro-2-dimethylaminomethylphenoxy)ethyl]-N-[methyl]aminomethyl}benzamide] | 74 |  |  | 
13 | CN(C)Cc1c(Cl)cccc1OCCN(C)Cc1ccccc1O [Example 33, 2-{N-[2-(3-chloro-2-dimethylaminomethylphenoxy)ethyl]-N-[methyl]aminomethyl}phenol] | 16 |  | active | 
14 | CN(C)Cc1c(Cl)cccc1OCCCN(C)Cc1ccccc1 [Example 35, 2-[3-(N-benzyl-N-methylamino)propoxy]-6-chloro-N,N-dimethylbenzylamine] | 33 |  | active | 
15 | CN(C)Cc1ccccc1OCCNC(C)(C)c1ccc(Cl)cc1 [Example 36, 2-[2-(4-chloro-α,α-dimethylbenzylamino)ethoxy]-N,N-dimethylbenzylamine] | 3 |  | active | 
16 | CN(CCOc1cccc(Cl)c1CN)Cc1ccccc1 [Example 37, 2-[2-(N-benzyl-N-methylamino)ethoxy]-6-chlorobenzylamine] | 12 |  | active | 

More lines, main results first:

Row | IC50 [1] [µM] | Structure (SMILES) | inhibition at 100 mg/kg [2] [%] | activity in Test C at 10 mg/kg or less [3] | activity in Test C at 30 mg/kg [3]
17 | 15 | CN(C)Cc1c(Cl)cccc1OCCN(C)Cc1ccccc1 [Example 1, 2-[2-(N-benzyl-N-methylamino)ethoxy]-6-chloro-N,N-dimethylbenzylamine] | 70 | active | 
18 | 65 | CN(C)Cc1cccc(Cl)c1OCCN(C)Cc1ccccc1 [Example 2, 2-[2-(N-Benzyl-N-methylamino)ethoxy]-3-chloro-N,N-dimethylbenzylamine] |  |  | 
19 | 20 | CN(C)Cc1cc(F)ccc1OCCN(C)Cc1ccccc1 [Example 3, 2-[2-(N-Benzyl-N-methylamino)ethoxy]-5-fluoro-N,N-dimethylbenzylamine] | 52 |  | active
20 | 60 | CN(C)Cc1cc(C#N)ccc1OCCN(C)Cc1ccccc1 [Example 4, 4-[2-(N-Benzyl-N-methylamino)ethoxy]-3-(dimethylaminomethyl)benzonitrile] |  |  | 
21 | 12 | CN(C)Cc1cc(Cl)c(Cl)cc1OCCN(C)Cc1ccccc1 [Example 5, 2-[2-(N-Benzyl-N-methylamino)ethoxy]-4,5-dichloro-N,N-dimethylbenzylamine] | 6 |  | 
22 | 15 | CN(C)Cc1ccc(Cl)cc1OCCN(C)Cc1ccccc1 [Example 6, 2-[2-(N-Benzyl-N-methylamino)ethoxy]-4-chloro-N,N-dimethylbenzylamine] | 18 |  | active
23 | 20 | CN(C)Cc1cc(C(F)(F)F)ccc1OCCN(C)Cc1ccccc1 [Example 7, 2-[2-(N-Benzyl-N-methylamino)ethoxy]-N,N-dimethyl-5-trifluoromethylbenzylamine] | 18 |  | 
24 | 24 | COc1ccc(CN(C)C)c(OCCN(C)Cc2ccccc2)c1 [Example 18, 2-[2-(N-Benzyl-N-methylamino)ethoxy]-4-methoxy-N,N-dimethylbenzylamine] |  |  | 
25 | 33 | COC(=O)c1ccc(OCCN(C)Cc2ccccc2)c(CN(C)C)c1 [Example 26, methyl 4-[2-(N-benzyl-N-methylamino)ethoxy]-3-(dimethylaminomethyl) benzoate] |  |  | 
26 | 34 | COc1ccc(OCCN(C)Cc2ccccc2)c(CN)c1 [Example 27, 2-[2-(N-benzyl-N-methylamino)ethoxy]-5-methoxybenzylamine] |  |  | 
27 | 39 | CN(C)Cc1cc(C(N)=O)ccc1OCCN(C)Cc1ccc(Cl)cc1 [Example 31, 4-{2-[N-(4-chlorobenzyl)-N-methylamino]ethoxy}-3-(dimethylaminomethyl)benzamide] | 19 |  | 
28 | 39 | CN(C)Cc1cc(O)ccc1OCCN(C)Cc1ccccc1 [Example 32, 4-[2-(N-benzyl-N-methylamino)ethoxy]-3-(dimethylaminomethyl)phenol] | 0 |  | 
29 | 35 | COc1ccc(OCCN(C)Cc2ccccc2)c(CN(C)C)c1 [Example 34, 2-[2-(N-benzyl-N-methylamino)ethoxy]-5-methoxy-N,N-dimethylbenzylamine] |  |  | 
